Columns and labels:
[1] = test system: panel of 74 other receptors, enzymes, and ion channels; test: Selectivity panel binding; details: test concentration of 1 μM
Text: Tradipitant is a selective neurokinin-1 (NK-1) receptor antagonist. […] By 3 different measures, tradipitant is also a potent centrally active NK-1 antagonist in vivo.

NK-3 receptor = biological target: T1, NK-3 receptor (Homo sapiens, UniProt P29371); test: NK-3 receptor inhibition; assay type: binding
T1 sequence (P29371 1-465): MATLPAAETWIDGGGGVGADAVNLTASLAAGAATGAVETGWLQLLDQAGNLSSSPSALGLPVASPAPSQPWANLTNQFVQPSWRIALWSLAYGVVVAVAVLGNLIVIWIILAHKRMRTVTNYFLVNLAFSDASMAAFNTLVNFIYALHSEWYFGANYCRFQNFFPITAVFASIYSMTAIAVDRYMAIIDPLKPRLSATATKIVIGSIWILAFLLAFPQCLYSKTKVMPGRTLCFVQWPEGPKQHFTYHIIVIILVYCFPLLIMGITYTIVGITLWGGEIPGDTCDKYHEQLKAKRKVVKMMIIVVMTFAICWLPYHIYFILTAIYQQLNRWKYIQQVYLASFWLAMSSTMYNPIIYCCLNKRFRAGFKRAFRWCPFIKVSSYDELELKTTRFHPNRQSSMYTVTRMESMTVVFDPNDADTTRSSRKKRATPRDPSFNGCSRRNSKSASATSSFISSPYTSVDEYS

NK-1 receptor = biological target: T2, NK-1 receptor (Cavia porcellus, UniProt P30547); test: GR73632-induced vocalization in guinea pigs; assay type: in vivo; details: guinea pig
T2 construct: potency and CNS penetration of NK-1 antagonists in the guinea pig; from tissue; host or cells: brain of living Dunkin/Hartley guinea pigs
T2 sequence (P30547 whole entry): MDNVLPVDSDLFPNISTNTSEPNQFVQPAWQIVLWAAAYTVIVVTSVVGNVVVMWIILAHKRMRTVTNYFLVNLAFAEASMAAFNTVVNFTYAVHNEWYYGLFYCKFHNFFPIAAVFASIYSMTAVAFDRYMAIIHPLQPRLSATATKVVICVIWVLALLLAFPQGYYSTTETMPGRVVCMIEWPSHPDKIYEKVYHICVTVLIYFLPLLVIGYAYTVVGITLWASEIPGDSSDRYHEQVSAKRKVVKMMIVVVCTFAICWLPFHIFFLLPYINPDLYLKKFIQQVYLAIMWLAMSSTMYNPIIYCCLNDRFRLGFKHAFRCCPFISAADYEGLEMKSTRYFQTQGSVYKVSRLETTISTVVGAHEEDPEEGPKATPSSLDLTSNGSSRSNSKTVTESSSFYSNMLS
Experimental: When introduced into the brain, the NK-1 receptor agonist substance P (SP) elicits distress vocalizations in the guinea pig that can be inhibited by NK-1 antagonists.
Male Dunkin/Hartley guinea pigs (200 to 250 grams) are orally administered either vehicle or an NK-1 antagonist. Approximately 45 minutes later (for dose response studies), the animals are anesthetized and 0.1 nmol of GR73632 (SP analog) in a vehicle volume of 5 μl is injected into the cerebral ventricle at the intersection of bregma and the midline of the skull. Animals are placed in a dark testing chamber located inside of a sound attenuation cubicle and vocalizations are recorded for 30 minutes following recovery from anesthesia. The time spent vocalizing is quantified for each animal. In the duration of action study, 0.1 mg/kg of tradipitant or vehicle solution is administered orally and then 2, 4, or 7 hours later, 0.1 nmol of GR73632 is administered into the cerebral ventricle as described above. Vocalizations are recorded and quantified as indicated above. Vehicle solutions are either CMC (FIG. 4 data) or an ethanol/emulphor solution (FIGS. 5 and 6). Data is analyzed using one-tailed t-tests.

brain NK-1 receptors = test: Occupancy of brain NK-1 receptors with tracer GR205171; assay type: in vivo; details: p.o., tracer GR205171 iv
Experimental: A tracer NK-1 antagonist compound (GR205171) is used to evaluate the ability of other NK-1 antagonists to occupy the brain NK-1 receptors. In these studies, the test compounds are administered orally and the tracer compound is administered intravenously afterward. The occupancy of the NK-1 receptors is evaluated by quantitating the amount of the tracer compound bound to the brain NK-1 receptors after increasing doses of the test compounds.

motion sickness = test: Clinical study of motion sickness prevention during sea travel; assay type: in vivo, human; details: for study participants experiencing vomiting: tradipitant arm 170 mg
Experimental: A randomized, double blind, placebo-controlled clinical study of motion sickness is conducted, in which 126 human subjects (“study participants”), each having a prior history of motion sickness, are subjected to sea travel in the Pacific Ocean under varied weather conditions. Study participants are distributed over seven (7) four-hour boat trips off the coast of Los Angeles, California, USA. For each trip, sea conditions and participant self-evaluation of symptoms of motion sickness are recorded. Among the seven trips, three are under “rough” sea conditions, conducive to producing motion sickness with wave heights above one meter. The remaining four trips are made under “calm” conditions, with wave heights less than one meter, and are less likely to produce motion sickness. Under “rough” sea conditions, 72.2% of the placebo treated patients experience vomiting compared to only 26.7% under “calm” conditions. Subjects are randomized 1:1 to receive either tradipitant 170 mg or placebo by mouth in a blinded fashion, prior to travel initiation. Participants report their symptoms at predetermined time intervals of every 30 minutes during the travel period using the Motion Sickness Severity Scale (MSSS) and other assessments. Primary end points of the study include: percentage of participants vomiting, and Motion Sickness Severity Scale (MSSS) Worst score. The MSSS is a 7 point scale ranging from 0 (“no symptoms”) to 6 (“vomiting”). An exploratory analysis is also performed to evaluate the effects of tradipitant under “calm” and “rough” seas. In the study described above in Example 3, further analysis is conducted with respect to study participants' ethnic backgrounds, in particular, whether study participants are Hispanic or non-Hispanic, e.g., white (non-Hispanic), Black or African American (non-Hispanic), American Indian and Alaska Native (non-Hispanic), Asian (non-Hispanic), Native Hawaiian and other Pacific Islander (non-Hispanic), some other race (non-Hispanic), or multi-racial (non-Hispanic). Results are analyzed based on study participants' self-reported ethnic backgrounds.

O=C(c1ccccc1Cl)c1cccnc1-c1nnn(Cc2cc(C(F)(F)F)cc(C(F)(F)F)c2)c1-c1ccncc1 [Tradipitant, {2-[1-(3,5-bistrifluoromethylbenzyl)-5-pyridin-4-yl-1H-[1,2,3]triazol-4-yl]-pyridin-3-yl}-(2-chlorophenyl)-methanone]
inhibition of binding in panel of 74 other receptors, enzymes, and ion channels [1]: ≤ 50%
inhibition at NK-3 receptor (NK-3 receptor): no significant inhibition
suppression of agonist-induced vocalization (NK-1 receptor; 0.1 mg/kg oral, 7 hours after administration): significantly active
duration of activity (NK-1 receptor; administered orally): exceeds 7 hours
inhibitory activity on vocalization (NK-1 receptor; at and below 0.1 mg/kg oral): retains significant inhibitory activity
inhibition of agonist-induced vocalization (NK-1 receptor; oral, 10, 1.0, 0.1 and 0.05 mg/kg (each p<0.001)): significant inhibition
minimum effective dose (MED), inhibition of vocalization (NK-1 receptor; oral, p<0.001 compared to controls): 0.025 mg/kg
ED50, occupancy of brain NK-1 receptors (brain NK-1 receptors): 0.04 mg/kg
% Vomiting, Difference placebo vs tradipitant (motion sickness; Calm Sea, P-value 0.3123): 8.5%
Worst MSSS, Difference placebo vs tradipitant (motion sickness; Calm Sea, P-value 0.8271): −0.09
Worst MSSS (motion sickness; Calm Sea, n = 44, 170 mg by mouth, placebo 3.32): 3.4
Worst MSSS (motion sickness; Calm Sea, n = 44, 170 mg by mouth, placebo 3.32, listed as tradipitant): 3.40
% Vomiting (motion sickness; Calm Sea, n = 44, 170 mg by mouth, placebo 26.7%): 18.2%
% Vomiting (motion sickness; Calm Sea, n = 44, 170 mg by mouth, placebo 26.7%, listed as tradipitant): 18.2%
study participants experiencing vomiting (motion sickness; Hispanic participants, placebo 33.3%): 4.5%
% Vomiting, Difference placebo vs tradipitant (motion sickness; ITT, P-value 0.0039): 22.2%
Worst MSSS, Difference placebo vs tradipitant (motion sickness; ITT, P-value 0.2936): 0.35
Worst MSSS (motion sickness; ITT, n = 63, 170 mg by mouth, placebo 3.75): 3.40
Worst MSSS (motion sickness; ITT, n = 63, 170 mg by mouth, placebo 3.75, listed as tradipitant): 3.4
% Vomiting (motion sickness; ITT, n = 63, 170 mg by mouth, placebo 39.7%): 17.5%
% Vomiting (motion sickness; ITT, n = 63, 170 mg by mouth, placebo 39.7%, listed as tradipitant): 17.5%
% Vomiting, Difference placebo vs tradipitant (motion sickness; Rough Sea, P-value 0.0009): 56.4%
Worst MSSS, Difference placebo vs tradipitant (motion sickness; Rough Sea, P-value 0.0235): 1.38
Worst MSSS (motion sickness; Rough Sea, n = 19, 170 mg by mouth, placebo 4.57): 3.19
% Vomiting (motion sickness; Rough Sea, n = 19, 170 mg by mouth, placebo 72.2%): 15.8%
% Vomiting (motion sickness; Rough Sea, n = 19, 170 mg by mouth, placebo 72.2%, listed as tradipitant): 15.8%
study participants experiencing vomiting (motion sickness; non-Hispanic participants, placebo 42.8%): 24.4%
